Here are results for three compounds from BindingDB's records for doi:10.1021/jm00032a001 (Warner-Lambert, 1994).

SMILES strings stand for the structures.

By IC50 is commonly meant the concentration that gives 50% inhibition. The low end stands for higher potency, the high end for lower potency.

The nature of experiment [1]: Tested for inhibition of ICAM expression by ELISA at the dose of 30 uM. (In general: In an ELISA, binding on a coated surface is turned into a signal by an enzyme label.)
The nature of experiment [2]: Tested for inhibition of E-selectin expression by ELISA at the dose of 30 uM.
A short description of experiment [3]: Tested for inhibition of E-selection expression by ELISA at the dose of 30 uM.
A short description of experiment [4]: Tested for inhibition of ICAM expression by ELISA at the dose of 30 uM. This is another data set of the same source.

As for `CNC(=O)c1sc2ccc(OC)cc2c1OC(C)C` [3-Isopropoxy-5-methoxy-benzo[b]thiophene-2-carboxylic acid methylamide], the IC50 in experiment [1] was 6.6 µM; in experiment [2], 1.4 µM.

`COc1ccc2c(c1)c(OC(C)C)c(C(N)=O)[s+]2[O-]` (stereo unspecified) [3-Isopropoxy-5-methoxy-1-oxo-benzo[b]thiophene-2-carboxylic acid amide]: the IC50 was determined as 6.6 µM in experiment [3] and 4 µM in experiment [4].

Take `CC(C)Oc1c(C(N)=O)sc2ccc(O)cc12` [5-Hydroxy-3-isopropoxy-benzo[b]thiophene-2-carboxylic acid amide]: the IC50 in experiment [1] came out at 3.5 µM; in experiment [2], 3.3 µM.
